Like-named read-outs stand apart in the source and are kept apart here.
How the values were obtained:
active Arthus reaction = assay: Active Arthus reaction in the rat; format: in vivo, Sprague-Dawley rats; settings: for change in vivo at 25 mg/kg: oral dose 25 mg/kg
Description: The experimental animals used were female and male Sprague-Dawley rats with a body weight between 80 and 100 g which received subcutaneous injections into the tail-head of 0.5 ml of an emulsion of pertussis vaccine and ovalbumin in liquid paraffin. After two weeks, the rats were divided into groups each of 8 animals. 24 hours and 1 hour before induction of the Arthus reaction by injection of 0.1 ml of a 0.4% strength ovalbumin solution into the right hind paw, the particular test substance or the pure vehicle (positive control) was administered orally, sodium chloride solution was injected into the left paw. One group of unsensitized animals (negative control group) was likewise treated with ovalbumin in order to be able to rule out nonspecific reactions to the protein. The parameter used for measuring the action of the product was the percentage change in the increase in paw volume compared with that in the control group which was sensitized but untreated (positive control) 4 hours after ovalbumin challenge, when the swelling had reached its maximum.

Acute toxicity = assay: Acute toxicity; set-up: species or system mice; settings: mouse, in vivo, single dose, mortality within 7 days
Description: The LD50 values were determined by the standard method via the mortality occurring within 7 days in NMRI (Naval Medical Research Institute) mice (6 animals per dose) after a single intraperitoneal (i.p.) or intravenous (i.v.) dose.

[1] = test system: DTH reaction to sheep erythrocytes; assay: Delayed-type hypersensitivity (DTH) reaction to sheep erythrocytes; format: in vivo, female NMRI mice; settings: single i.p. dose of 40 mg/kg; maximal stimulation by Example 34 = 100%
Description: Groups each comprising 5 female NMRI mice with a body weight of 18 to 20 g were formed, and each animal was given 10^6 or 10^9 sheep red blood cells intravenously. Sheep erythrocytes are regarded in immunology as a standard antigen with which it is possible to check cellular and humoral immunoreactivity, especially the functioning of the T-cell-dependent component of the immune system, the so-called T-helper cells. The test substances were administered, in intraperitoneal doses of 5 to 100 mg/kg in physiological saline, at the same time as the antigen. After 5 days, each animal was given an injection of 2×10^8 sheep erythrocytes into the footpad. 24 hours later, the swelling of the foot was measured. The foot swelling is induced by a skin reaction of the delayed type (DTH reaction) and, as is known to those skilled in the art, is a measure of the cellular immune response (J. Immunol. 101 (1968), 830-845). The test results obtained with the product of Example 34, by way of example, are compiled in Table 7 and illustrate that the compounds of the formula I--administered prophylactically--are able to increase the cellular immune response after immunization with the antigen by stimulation of the T-cell system, with the stimulant action reaching its optimum in this experiment at a dose of 25 mg/kg.

leucine aminopeptidase = assay: Inhibition of leucine aminopeptidase; format: biochemical; settings: substrate L-leucine 4-nitroanilide
Description: The activity of the enzyme aminopeptidase B was determined photometrically using the substrate L-lysine 2-naphthylamide at room temperature. […] In the same way, the inhibition of leucine aminopeptidase was investigated using L-leucine 4-nitroanilide as enzyme substrate. The IC50 values are compiled in Table 6.

peritoneal macrophages = assay: Stimulation of the release of lysosomal enzymes from peritoneal macrophages (exocytosis); settings: single i.p. dose of 40 mg/kg; maximum activation by Example 34 = 100%
[2] = Rattus norvegicus, po, 4 h, oral dose 50 mg/kg, 4 h after ovalbumin challenge
[3] = Rattus norvegicus, oral dose 70 mg/kg, 4 h after ovalbumin challenge, read-out: Active Arthus reaction % change
[4] = Rattus norvegicus, po, 4 h, read-out: Active Arthus reaction % change
[5] = Rattus norvegicus, po, 4 h, oral dose 35 mg/kg, 4 h after ovalbumin challenge, read-out: Active Arthus reaction % change

CP(=O)(O)C1CC(c2cccc3ccccc23)=NO1 (stereo not drawn) [Example 32]
change in vivo at 50 mg/kg (active Arthus reaction; [2]): 42%
LD50 at 168 h (Acute toxicity; ip): 600 to 1200 mg/kg

COC(=O)c1ccc(C2=NOC(P(=O)(OC)OC)C2)cc1 (stereo not drawn) [Example 66, Dimethyl 3-(4-methoxycarbonylphenyl)-2-isoxazolin-5-ylphosphonate]
change in vivo at 50 mg/kg (active Arthus reaction; Rattus norvegicus, oral dose 50 mg/kg, 4 h after ovalbumin challenge): -28%

CCOP(=O)(O)C1CC(c2ccccc2)=NO1 (stereo not drawn) [Example 27, Monoethyl 3-phenyl-2-isoxazolin-5-ylphosphonate]
change in vivo at 70 mg/kg (active Arthus reaction; [3]): 108%
Relative stimulation of the DTH reaction [1]: 94%
LD50 at 168 h (Acute toxicity; iv): > 200 mg/kg

CCOP(=O)(C1CC(c2ccccc2)=NO1)N1CCCC1 (stereo not drawn) [Example 55, 3-Phenyl-2-isoxazolin-5-yl(P-ethoxy)phosphonic acid pyrrolidide]
change in vivo at 70 mg/kg (active Arthus reaction; [3]): -23%
LD50 at 168 h (Acute toxicity; iv): > 200 mg/kg

CP(=O)(O)CC1CC(Cl)=NO1 (stereo not drawn) [Example 79, 3-Chloro-2-isoxazolin-5-ylmethyl(P-methyl)phosphinic acid]
change in vivo at 70 mg/kg (active Arthus reaction; [4]): -24%

CP(=O)(O)C1CC(Cc2ccccc2)=NO1 (stereo not drawn) [Example 31]
change in vivo at 50 mg/kg (active Arthus reaction; [2]): 66%
LD50 at 168 h (Acute toxicity; iv): > 200 mg/kg

CC(C)(C)C1=NOC(P(C)(=O)O)C1 (stereo not drawn) [Example 64, 3-tert.Butyl-2-isoxazolin-5-yl(P-methyl)phosphinic acid]
change in vivo at 20 mg/kg (active Arthus reaction; [4]): -59%
LD50 at 168 h (Acute toxicity; iv): > 200 mg/kg

CC(C)(C)c1cc(P(=O)(O)O)on1 [Example 77, Diammonium 3-tert.butyl-5-isoxazolylphosphonate]
change in vivo at 35 mg/kg (active Arthus reaction; [4]): -20%

Cc1ccc(C2=NOC(P(C)(=O)O)C2)cc1 (stereo not drawn) [Example 30]
Relative stimulation of the DTH reaction [1]: 76%

O=P(O)(O)c1cc(-c2ccncc2)no1 [Example 51]
change in vivo at 50 mg/kg (active Arthus reaction; [2]): 17%
LD50 at 168 h (Acute toxicity; iv): > 200 mg/kg

O=P(O)(O)C1CC(c2cccc3ccccc23)=NO1 (stereo not drawn) [Example 45]
change in vivo at 50 mg/kg (active Arthus reaction; [2]): -25%
Leucine aminopeptidase IC50 (leucine aminopeptidase): 92 μug/ml
LD50 at 168 h (Acute toxicity; ip): 75 to 150 mg/kg

COP(=O)(OC)C1CC(c2ccccc2)=NO1 (racemic) [Example 5, Dimethyl 3-phenyl-2-isoxazolin-5-ylphosphonate]
Active Arthus reaction % change (active Arthus reaction; oral dose 100 mg/kg, 4 h after ovalbumin challenge): -20%
LD50 at 168 h (Acute toxicity; ip): 300 to 600 mg/kg
Relative stimulation of macrophage activity: Exocytosis (peritoneal macrophages): 54%

Br.CN(C)c1ccc(C2=NOC(P(=O)(O)O)C2)cc1 (stereo not drawn) [Example 71, 3-(4-Dimethylaminophenyl)-2-isoxazolin-5-ylphosphonic acid hydrobromide]
change in vivo at 70 mg/kg (active Arthus reaction; [4]): -10%
Leucine aminopeptidase IC50 (leucine aminopeptidase): 37 μug/ml
LD50 at 168 h (Acute toxicity; ip): 150 to 300 mg/kg

CC(C)(C)C1=NOC(CP(C)(=O)O)C1 (stereo not drawn) [Example 99]
change in vivo at 35 mg/kg (active Arthus reaction; [4]): -32%
LD50 at 168 h (Acute toxicity; iv): > 100 mg/kg

CCOC(=O)C1=NOC(P(C)(=O)O)C1 (stereo not drawn) [Example 101]
change in vivo at 70 mg/kg (active Arthus reaction; [4]): -32%
LD50 at 168 h (Acute toxicity; iv): > 100 mg/kg

COP(=O)(OC)C1CC(c2ccc(F)cc2)=NO1 (stereo not drawn) [Example 65]
LD50 at 168 h (Acute toxicity; ip): > 300 mg/kg

O=P(O)(O)C1CC(c2ccccn2)=NO1 (stereo not drawn) [Example 42]
change in vivo at 35 mg/kg (active Arthus reaction; [5]): -33%
LD50 at 168 h (Acute toxicity; iv): > 200 mg/kg

O=P(O)(O)C1CC(c2ccncc2)=NO1 (stereo not drawn) [Example 43]
change in vivo at 50 mg/kg (active Arthus reaction; [2]): -14%
LD50 at 168 h (Acute toxicity; iv): > 200 mg/kg

O=C(O)c1ccc(C2=NOC(P(=O)(O)O)C2)cc1 (stereo not drawn) [Example 87]
change in vivo at 35 mg/kg (active Arthus reaction; [5]): -29%

CC(C)(C)C1=NOC(P(=O)(O)O)C1 (stereo not drawn) [Example 33, 3-tert.butyl-2-isoxazolin-5-ylphosphonic acid]
change in vivo at 100 mg/kg (active Arthus reaction; [4]): -15%
LD50 at 168 h (Acute toxicity; iv): > 200 mg/kg

O=P(O)(O)C1CC(Cc2ccccc2)=NO1 (stereo not drawn) [Example 49]
change in vivo at 50 mg/kg (active Arthus reaction; [2]): -59%
LD50 at 168 h (Acute toxicity; iv): > 200 mg/kg

O=P(O)(O)c1cc(-c2ccccc2)no1 [Example 46]
change in vivo at 50 mg/kg (active Arthus reaction; [2]): -36%
LD50 at 168 h (Acute toxicity; iv): > 200 mg/kg

O=P(O)(O)C1CC(C=Cc2ccccc2)=NO1 (stereo not drawn) [Example 52]
change in vivo at 50 mg/kg (active Arthus reaction; [2]): -15%

O=P(O)(O)C1CC(c2ccc(F)cc2)=NO1 (stereo not drawn) [Example 67, 3-(4-Fluorophenyl)-2-isoxazolin-5-ylphosphonic acid]
change in vivo at 50 mg/kg (active Arthus reaction; [2]): -35%
Leucine aminopeptidase IC50 (leucine aminopeptidase): 57 μug/ml

COP(=O)(OC)C1CC(C(C)(C)O)=NO1 (stereo not drawn) [Example 90]
Active Arthus reaction % change (active Arthus reaction; oral dose 50 mg/kg, 4 h after ovalbumin challenge): -31%

CCOP(=O)(OCC)C1CC(c2ccccc2)=NO1 (stereo not drawn) [Example 1, Diethyl 3-phenyl-2-isoxazolin-5-ylphosphonate]
Leucine aminopeptidase IC50 (leucine aminopeptidase): 65 μug/ml

O=P(O)(O)CC1CC(c2ccccc2)=NO1 (stereo not drawn) [Example 39]
change in vivo at 50 mg/kg (active Arthus reaction; [2]): 24%
Relative stimulation of the DTH reaction [1]: 136%
LD50 at 168 h (Acute toxicity; ip): 600 to 1200 mg/kg

CP(=O)(NCC(=O)OCc1ccccc1)C1CC(c2ccccc2)=NO1 (stereo not drawn) [57/58, N-[3-Phenyl-2-isoxazolin-5-yl(P-methyl)phosphinoyl]glycine benzyl ester]
change in vivo at 12 mg/kg (active Arthus reaction; Rattus norvegicus, po, 4 h, oral dose 12 mg/kg, 4 h after ovalbumin challenge): 22%
LD50 at 168 h (Acute toxicity; iv): 50 to 100 mg/kg

O=P(O)(O)C1CC(c2ccc(Cl)cc2)=NO1 (stereo not drawn) [Example 40]
change in vivo at 50 mg/kg (active Arthus reaction; [2]): -23%
LD50 at 168 h (Acute toxicity; iv): > 200 mg/kg

O=P(O)(O)C1CC(c2cccnc2)=NO1 (stereo not drawn) [Example 88]
change in vivo at 50 mg/kg (active Arthus reaction; [2]): -50%

O=P(O)(O)C1CC(c2ccccc2O)=NO1 (stereo not drawn) [Example 73, 3-(2-Hydroxyphenyl)-2-isoxazolin-5-ylphosphonic acid]
change in vivo at 35 mg/kg (active Arthus reaction; [5]): -44%
LD50 at 168 h (Acute toxicity; ip): 150 to 300 mg/kg

CP(C)(=O)C1CC(c2ccccc2)=NO1 (stereo not drawn) [Example 17, 3-Phenyl-2-isoxazolin-5-yldimethylphosphine oxide]
change in vivo at 35 mg/kg (active Arthus reaction; [5]): -34%
LD50 at 168 h (Acute toxicity; iv): > 200 mg/kg

CP(C)(=O)C1CC(c2ccccn2)=NO1 (stereo not drawn) [Example 105]
change in vivo at 35 mg/kg (active Arthus reaction; [5]): -23%
LD50 at 168 h (Acute toxicity; iv): > 100 mg/kg

CCOP(=O)(NCC(=O)OCc1ccccc1)C1CC(c2ccccc2)=NO1 (stereo not drawn) [Example 56, N-[3-Phenyl-2-isoxazolin-5-yl(P-ethoxy)phosphonoyl]glycine benzyl ester]
change in vivo at 100 mg/kg (active Arthus reaction; Rattus norvegicus, oral dose 100 mg/kg, 4 h after ovalbumin challenge, read-out: Active Arthus reaction % change): 35%
LD50 at 168 h (Acute toxicity; ip): > 1200 mg/kg

CP(=O)(O)C1CC(C(=O)O)=NO1 (stereo not drawn) [Example 102]
change in vivo at 35 mg/kg (active Arthus reaction; [4]): -35%

CCOP(=O)(O)C1CC(c2ccc(OC)cc2)=NO1 (stereo not drawn) [Example 28, Monoethyl ammonium 3-(4-methoxyphenyl)-2-isoxazolin-5-ylphosphonate]
change in vivo at 25 mg/kg (active Arthus reaction; Rattus norvegicus, 4 h after ovalbumin challenge, read-out: Active Arthus reaction % change): -12%
LD50 at 168 h (Acute toxicity; iv): > 200 mg/kg

O=P(O)(O)c1cc(-c2ccccn2)no1 [Example 50]
change in vivo at 25 mg/kg (active Arthus reaction; Rattus norvegicus, po, 4 h, 4 h after ovalbumin challenge, read-out: Active Arthus reaction % change): -18%
LD50 at 168 h (Acute toxicity; iv): > 200 mg/kg

CN(C)P(=O)(C1CC(c2ccccc2)=NO1)N(C)C (stereo not drawn) [Example 59, 3-Phenyl-2-isoxazolin-5-ylphosphonic tetra methyldiamide]
change in vivo at 50 mg/kg (active Arthus reaction; [2]): -25%
LD50 at 168 h (Acute toxicity; iv): > 200 mg/kg

O=P(O)(O)CC1CC(c2ccc(Cl)cc2)=NO1 (stereo not drawn) [Example 41]
change in vivo at 100 mg/kg (active Arthus reaction; Rattus norvegicus, po, 4 h, oral dose 100 mg/kg, 4 h after ovalbumin challenge, read-out: Active Arthus reaction % change): 26%
LD50 at 168 h (Acute toxicity; ip): 150 to 300 mg/kg

Reference: patent US5006515A, “Pharmaceuticals, phosphorus-containing 2-isoxazolines and isoxazoles contained therein” (Hoechst Aktiengesellschaft, priority 1987, dated 1991)
